Legend:
[1] = tested on: K-Ras G12C (NCI-H358 cells); test: Potency assay: pERK in NCI-H358 cells; type: cell-based, human; conditions: Homo sapiens; NCI-H358 cells, 4 hours; read-out: pERK EC50 (H358 KRAS G12C)
Outline: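 Cells plated the day before were exposed for 4 h at 37° C, 5% CO2 to a 10-point, 3-fold DMSO dilution series (10 mM top stock), in duplicate. Phospho-ERK was read by AlphaLISA SureFire Ultra or by In-Cell Western with DRAQ5 DNA stain, and IC50 came from a 4-parameter sigmoidal fit.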

[2] = tested on: NCI-H358 (K-Ras G12C); test: CellTiter-Glo cell viability assay, NCI-H358; type: cell-based, human; conditions: Homo sapiens, NCI-H358, 120 h, 5-day treatment; read-out: H358 Cell Viability assay data (K-Ras G12C, IC50)
Outline: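 Luminescent CellTiter-Glo read-out on day 5 after compound exposure; signal expressed as percent of mean DMSO control; four-parameter logistic fit gives the value.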

[3] = target: K-Ras G12C(GMP-PNP) binding to BRAF RBD (Homo sapiens (Human), UniProt P01116+P62937, G12C); test: Disruption of BRAF RBD interaction with K-Ras (FRET / MOA assay), K-Ras G12C; type: biochemical; conditions: read-out: KRAS G12C FRET IC50
Sequence of K-Ras G12C(GMP-PNP) binding to BRAF RBD (P01116 other isoform, or with tags, fused parts or gaps G12C): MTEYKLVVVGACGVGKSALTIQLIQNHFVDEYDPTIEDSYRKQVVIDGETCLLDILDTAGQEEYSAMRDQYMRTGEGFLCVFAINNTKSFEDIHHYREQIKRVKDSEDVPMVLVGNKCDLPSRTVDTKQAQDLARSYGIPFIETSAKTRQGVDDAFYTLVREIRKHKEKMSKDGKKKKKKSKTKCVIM
Sequence of K-Ras G12C(GMP-PNP) binding to BRAF RBD (P62937 whole entry): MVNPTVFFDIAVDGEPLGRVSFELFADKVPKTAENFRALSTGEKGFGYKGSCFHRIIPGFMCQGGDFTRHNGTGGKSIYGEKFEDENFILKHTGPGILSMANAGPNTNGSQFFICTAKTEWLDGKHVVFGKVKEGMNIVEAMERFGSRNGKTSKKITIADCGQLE
Outline: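 Cpd 10-pt 3-fold dilution, top 30 μM final; Ras/CypA/BRAF RBD mix 3 h, 25° C. Add anti-His Eu-W1024 10 nM + anti-GST APC 50 nM final, 1.5 h. Readout TR-FRET ratio decrease vs DMSO → IC50.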

[4] = target: KRAS G13D binding to BRAF RBD (Homo sapiens (Human), UniProt P01116+P62937, G13D); test: Ras-Raf disruption/FRET/MOA assay, KRAS G13D; type: biochemical
Sequence of KRAS G13D binding to BRAF RBD (P01116 other isoform, or with tags, fused parts or gaps G13D): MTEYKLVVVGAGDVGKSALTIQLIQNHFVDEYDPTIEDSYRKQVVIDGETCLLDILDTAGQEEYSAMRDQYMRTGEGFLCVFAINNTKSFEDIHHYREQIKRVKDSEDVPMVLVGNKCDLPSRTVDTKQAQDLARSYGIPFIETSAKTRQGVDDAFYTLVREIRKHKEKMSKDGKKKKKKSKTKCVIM
Sequence of KRAS G13D binding to BRAF RBD (P62937 whole entry): as the sequence (P62937 whole entry) above
Source text: (§1) Note—The following protocol describes a procedure for monitoring disruption of K-Ras G12C(GMP-PNP) binding to BRAF^RBD by a compound of the invention. This protocol may also be executed substituting other Ras proteins or nucleotides.
(§2) The purpose of this biochemical assay was to measure the ability of test compounds to facilitate ternary complex formation between a nucleotide-loaded K-Ras isoform and Cyclophilin A; the resulting ternary complex disrupts binding to a BRAF^RBD construct, inhibiting K-Ras signaling through a RAF effector. Data is reported as IC50 values.
(§3) Compound was present in plate wells as a 10-point 3-fold dilution series starting at a final concentration of 30 μM. After incubation at 25° C. for 3 hours, a mixture of Anti-His Eu—W1024 and anti-GST allophycocyanin was then added to assay sample wells at final concentrations of 10 nM and 50 nM, respectively, and the reaction incubated for an additional 1.5 hours. […] Compounds that facilitate disruption of a K-Ras: RAF complex were identified as those eliciting a decrease in the TR-FRET ratio relative to DMSO control wells.

[5] = target: KRAS Q61H binding to BRAF RBD (Homo sapiens (Human), UniProt P01116+P62937, Q61H); test: Ras-Raf disruption/FRET/MOA assay, KRAS Q61H; type: biochemical
Sequence of KRAS Q61H binding to BRAF RBD (P01116 other isoform, or with tags, fused parts or gaps Q61H): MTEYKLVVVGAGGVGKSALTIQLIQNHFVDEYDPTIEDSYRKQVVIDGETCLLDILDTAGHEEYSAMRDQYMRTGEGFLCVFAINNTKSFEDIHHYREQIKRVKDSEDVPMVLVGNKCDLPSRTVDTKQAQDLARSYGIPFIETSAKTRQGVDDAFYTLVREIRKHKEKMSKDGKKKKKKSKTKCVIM
Sequence of KRAS Q61H binding to BRAF RBD (P62937 whole entry, the tested form may be a part): as the sequence (P62937 whole entry) above
Source text: (§4) Disruption of B-Raf Ras-binding Domain (BRAF^RBD) Interaction with K-Ras by Compounds of the Invention (also called a FRET assay or an MOA assay)
as §1, §2
as §3, with “In assay buffer containing 25 mM HEPES pH 7.3, 0.002% Tween20, 0.1% BSA, 100 mM NaCl and 5 mM MgCl2, tagless Cyclophilin A, His6-K-Ras-GMPPNP, and GST-BRAF^RBD were combined in a 384-well assay plate at final concentrations of 25 μM, 12.5 nM and 50 nM, respectively. Compound was” for “Compound was”

[6] = target: NRAS G12C binding to BRAF RBD (Homo sapiens (Human), UniProt P01111+P62937, G12C); test: Ras-Raf disruption/FRET/MOA assay, NRAS G12C; type: biochemical
Sequence of NRAS G12C binding to BRAF RBD (P01111 whole entry G12C): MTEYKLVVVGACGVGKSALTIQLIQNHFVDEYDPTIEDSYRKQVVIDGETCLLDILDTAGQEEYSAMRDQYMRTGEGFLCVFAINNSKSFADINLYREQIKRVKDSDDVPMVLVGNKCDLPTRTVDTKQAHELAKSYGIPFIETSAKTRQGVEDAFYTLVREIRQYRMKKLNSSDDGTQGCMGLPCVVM
Sequence of NRAS G12C binding to BRAF RBD (P62937 whole entry): as the sequence (P62937 whole entry) above
Source text: as §1, §2, §3

[7] = target: NRAS Q61R binding to BRAF RBD (Homo sapiens (Human), UniProt P01111+P62937, Q61R); test: Ras-Raf disruption/FRET/MOA assay, NRAS Q61R; type: biochemical
Sequence of NRAS Q61R binding to BRAF RBD (P01111 whole entry Q61R): as the sequence (P01111 whole entry G12C) above, with C12G, Q61R counted along it
Sequence of NRAS Q61R binding to BRAF RBD (P62937 whole entry): as the sequence (P62937 whole entry) above
Source text: as §4, §1, §2
as §3, with “In assay buffer containing 25 mM HEPES pH 7.3, 0.002% Tween20, 0.1% BSA, 100 mM NaCl and 5 mM MgCl2, tagless Cyclophilin A, His6-K-Ras-GMPPNP, and GST-BRAF^RBD were combined in a 384-well assay plate at final concentrations of 25 μM, 12.5 nM and 50 nM, respectively. Compound was” for “Compound was”

[8] = target: NRAS Q61K binding to BRAF RBD (Homo sapiens (Human), UniProt P01111+P62937, Q61K); test: Ras-Raf disruption/FRET/MOA assay, NRAS Q61K; type: biochemical
Sequence of NRAS Q61K binding to BRAF RBD (P01111 whole entry Q61K): as the sequence (P01111 whole entry G12C) above, with C12G, Q61K counted along it
Sequence of NRAS Q61K binding to BRAF RBD (P62937 whole entry): as the sequence (P62937 whole entry) above
Source text: as §4, §1, §2
as §3, with “In assay buffer containing 25 mM HEPES pH 7.3, 0.002% Tween20, 0.1% BSA, 100 mM NaCl and 5 mM MgCl2, tagless Cyclophilin A, His6-K-Ras-GMPPNP, and GST-BRAF^RBD were combined in a 384-well assay plate at final concentrations of 25 μM, 12.5 nM and 50 nM, respectively. Compound was” for “Compound was”

[9] = target: NRAS WT binding to BRAF RBD (Homo sapiens (Human), UniProt P01111+P62937); test: Ras-Raf disruption/FRET/MOA assay, NRAS WT; type: biochemical
Sequence of NRAS WT binding to BRAF RBD (P01111 whole entry): as the sequence (P01111 whole entry G12C) above, with C12G counted along it
Sequence of NRAS WT binding to BRAF RBD (P62937 whole entry): as the sequence (P62937 whole entry) above
Source text: as §4, §1, §2
as §3, with “In assay buffer containing 25 mM HEPES pH 7.3, 0.002% Tween20, 0.1% BSA, 100 mM NaCl and 5 mM MgCl2, tagless Cyclophilin A, His6-K-Ras-GMPPNP, and GST-BRAF^RBD were combined in a 384-well assay plate at final concentrations of 25 μM, 12.5 nM and 50 nM, respectively. Compound was” for “Compound was”

| EC50 [1] [nM] | IC50 [2] [nM] | IC50 [3] [nM] | IC50 [4] [nM] | IC50 [5] [nM] | IC50 [6] [nM] | IC50 [7] [nM] | IC50 [8] [nM] | IC50 [9] [nM] | Structure (SMILES) |
| --- | --- | --- | --- | --- | --- | --- | --- | --- | --- |
| < 5000 | 100 to 1000 | 100 to 1000 | 1000 to 10000 | 1000 to 10000 | 100 to 1000 | 1000 to 10000 | 1000 to 10000 | 1000 to 10000 | C=CC(=O)C1CC[C@H](C(=O)N(C)[C@H](C(=O)N[C@H]2Cc3cccc(c3)-c3ccc4c(c3)c(c(-c3cccnc3[C@H](C)OC)n4CC)CC(C)(C)COC(=O)[C@@H]3CCCN(N3)C2=O)C(C)(C)F)C1 (stereo partly drawn) [Compound A693] |
| < 5000 | 10 to 100 | 10 to 100 | 100 to 1000 | 10 to 100 | 10 to 100 | 100 to 1000 | 10 to 100 | 100 to 1000 | CCn1c(-c2cccnc2[C@H](C)OC)c2c3cc(ccc31)-c1csc(n1)C[C@H](NC(=O)[C@H](C(C)C)N(C)C(=O)C1CCN(C(=O)/C=C/CN(C)C)C3(CC3)C1)C(=O)N1CCC[C@H](N1)C(=O)OCC(C)(C)C2 (stereo partly drawn) [Compound A701] |
| < 5000 | 10 to 100 | 10 to 100 | 100 to 1000 | 10 to 100 | 10 to 100 | 100 to 1000 | 10 to 100 | 10 to 100 | CCn1c(-c2cccnc2[C@H](C)OC)c2c3cc(ccc31)-c1csc(n1)C[C@H](NC(=O)[C@H](C(C)C)N(C)C(=O)C1CCN(C(=O)/C=C/CN(C)C)C[C@@H]1C)C(=O)N1CCC[C@H](N1)C(=O)OCC(C)(C)C2 (stereo partly drawn) [Compound A709] |
| < 5000 | < 10 | < 10 | 1000 to 10000 | 1000 to 10000 | 10 to 100 | > 10000 | > 10000 | 1000 to 10000 | CCn1c(-c2cccnc2[C@H](C)OC)c2c3cc(ccc31)N1CCO[C@@H](C[C@H](NC(=O)[C@H](C(C)C)N(C)C(=O)[C@@]3(F)CCN(C(=O)C#CC(C)(C)N4CCC4)C3)C(=O)N3CCC[C@H](N3)C(=O)OCC(C)(C)C2)C1 [Compound A726] |

From patent US20250195521A1 (Revolution Medicines, Inc., priority 2020, published 2025)
